The record followed here is patent US4427661A, “Fluorinated cyclic hexapeptide somatostatin analogs” (Merck & Co., Inc., priority 1982, dated 1984).

Structures are written as SMILES.

One experiment concerns growth hormone release. The experiment is described as follows: Growth Hormone--in vitro: growth hormone release inhibition in cultured rat pituitary cells. In kind it is cell-based. The note with it: multiples or fractions of the effect of somatostatin (=1), 4 hours incubation. The protocol: Rat pituitaries were isolated according to the procedures of Vale and Grant "In vitro Pituitary Hormone Secretion Assay for Hypophysioprivic Substances" in Methods in Enzymology. Vol.XXXVII,eds. O'Malley, B. W. and Hardman, J. G. (Academic Press, Inc., New York) pp. 5-93 (1975).
After 4 days in culture, the cells were washed and incubated for 4 hours in Dulbecco modified Eagle's medium in the presence or absence of graded doses of each analog or somatostatin. The medium was then collected for subsequent growth hormone determination by a double antibody radioimmunoassay for rat growth hormone.

Experiment [1] deals with pentagastrin evoked gastric secretion. As to the kind of experiment: Inhibition of pentagastrin evoked gastric secretion in the chronic fistula dog. To be noted: Dose 0.8 μg/ml./min., infusion 0-60 min, relative to placebo trial. In kind it is in vivo. The protocol:
Compounds were tested for their ability to inhibit pentagastrin evoked gastric secretion in the chronic fistula dog. Female beagle dogs with a chronic gastric fistula were given pentagastrin (2.5 μg./kg./hour, i.v. from -60 to 120 min.) and gastric outputs were collected via the fistula cannula. Samples were analyzed at 30 minute intervals for volume (ml.) and titratable acid (mEq/L) (Titration to pH 7 with 0.01 N NaOH); total acid output (mEq) was calculated as the production of output volume and acid concentration. Test compounds were infused at a constant rate from 0 to 60 minutes. Data have been expressed as percent change of total acid output relative to a placebo trial in the same animals.

The next experiment deals with insulin. The experiment is described as follows: Insulin inhibition in vivo: portal vein insulin in anesthetized rats. The note with it: multiples or fractions of the effect of somatostatin (=1), via external jugular vein, portal vein blood after 5 minutes. Set-up: species or system rat. The protocol:
Analogs of somatostatin were compared to somatostatin in their ability to decrease the levels of portal vein glucagon and insulin in anesthetized rats. Male Sprague-Dawley rats (Charles River CD) weighing 160-200 g were anethetized with urethane (150 mg/100 g of body weight; Aldrich). Saline or peptides were administered via the external jugular vein. After 5 minutes, the portal vein was exposed, and blood was collected via syringe containing 3 mg of EDTA and placed in chilled tubes containing 100 μl of Trasylol (FBA Pharmaceuticals) for subsequent hormone analysis. Plasma levels of glucagon were determined by the method of Faloona and Unger, Methods of Hormone Radioimmunoassay, Jaffe and Behrman (Eds), Academic Press, New York, Vol. II, pp. 257-527 (1976), utilizing glucagon antisera 30K obtained from R. Unger (Dallas, Tx). Plasma levels of insulin were determined by a modification of the procedure of Herbert et al., J. Clin. Endocrinol. Metab., 25, 1375-1384 (1965).

Regarding `C[C@H](N)C(=O)NCC(=O)N[C@H]1CSSC[C@@H](C(=O)O)NC(=O)[C@H](CO)NC(=O)[C@H]([C@@H](C)O)NC(=O)[C@H](Cc2ccccc2)NC(=O)[C@H]([C@@H](C)O)NC(=O)[C@H](CCCCN)NC(=O)[C@H](Cc2c[nH]c3ccccc23)NC(=O)[C@H](Cc2ccccc2)NC(=O)[C@H](Cc2ccccc2)NC(=O)[C@H](CC(N)=O)NC(=O)[C@H](CCCCN)NC1=O` [Somatostatin], the “Growth Hormone Release Inhibition In Vitro” value with growth hormone release turned out to be 1. In experiment [1] (interval 0-30 min), the “Gastric Secretion % Inhibition Acid Concentration 0-30” value is recorded as 16% and the “Gastric Secretion % Inhibition Vol. 0-30” value is recorded as 85%. Moreover, in experiment [1] (interval 30-60 min), the “Gastric Secretion % Inhibition Acid Concentration 30-60” value was found to be 77% and the “Gastric Secretion % Inhibition Vol. 30-60” value amounted to 97%. In experiment [1] (interval 60-90 min), the “Gastric Secretion % Inhibition Acid Concentration 60-90” value came out at 61% and the “Gastric Secretion % Inhibition Vol. 60-90” value turned out to be 81%. For the same compound, in experiment [1] (interval 90-120 min), the “Gastric Secretion % Inhibition Acid Concentration 90-120” value is listed as 14% and the “Gastric Secretion % Inhibition Vol. 90-120” value is listed as 37%. Moreover, the “Insulin Inhibition In Vivo” value with insulin was 1.
